Results taken from patent US12612407B2, “Imidazo[2,1-f][1,2,4]triazin-4-amine derivatives as TLR7 agonist” (BEIGENE, LTD., priority 2020, dated 2026).

The compounds below were run against T1, human TLR7 (Homo sapiens, UniProt Q9NYK1) (assay: HEK293-Blue hTLR7 Reporter Assay (QUANTI-BLUE, SEAP readout)). Details: HEK-Blue-hTLR7 cells, 24 hrs treatment, Table 1, B1-B232.
T1 construct: host or cells: HEK293 (HEK-Blue hTLR7)
T1 sequence (Q9NYK1 27-1049): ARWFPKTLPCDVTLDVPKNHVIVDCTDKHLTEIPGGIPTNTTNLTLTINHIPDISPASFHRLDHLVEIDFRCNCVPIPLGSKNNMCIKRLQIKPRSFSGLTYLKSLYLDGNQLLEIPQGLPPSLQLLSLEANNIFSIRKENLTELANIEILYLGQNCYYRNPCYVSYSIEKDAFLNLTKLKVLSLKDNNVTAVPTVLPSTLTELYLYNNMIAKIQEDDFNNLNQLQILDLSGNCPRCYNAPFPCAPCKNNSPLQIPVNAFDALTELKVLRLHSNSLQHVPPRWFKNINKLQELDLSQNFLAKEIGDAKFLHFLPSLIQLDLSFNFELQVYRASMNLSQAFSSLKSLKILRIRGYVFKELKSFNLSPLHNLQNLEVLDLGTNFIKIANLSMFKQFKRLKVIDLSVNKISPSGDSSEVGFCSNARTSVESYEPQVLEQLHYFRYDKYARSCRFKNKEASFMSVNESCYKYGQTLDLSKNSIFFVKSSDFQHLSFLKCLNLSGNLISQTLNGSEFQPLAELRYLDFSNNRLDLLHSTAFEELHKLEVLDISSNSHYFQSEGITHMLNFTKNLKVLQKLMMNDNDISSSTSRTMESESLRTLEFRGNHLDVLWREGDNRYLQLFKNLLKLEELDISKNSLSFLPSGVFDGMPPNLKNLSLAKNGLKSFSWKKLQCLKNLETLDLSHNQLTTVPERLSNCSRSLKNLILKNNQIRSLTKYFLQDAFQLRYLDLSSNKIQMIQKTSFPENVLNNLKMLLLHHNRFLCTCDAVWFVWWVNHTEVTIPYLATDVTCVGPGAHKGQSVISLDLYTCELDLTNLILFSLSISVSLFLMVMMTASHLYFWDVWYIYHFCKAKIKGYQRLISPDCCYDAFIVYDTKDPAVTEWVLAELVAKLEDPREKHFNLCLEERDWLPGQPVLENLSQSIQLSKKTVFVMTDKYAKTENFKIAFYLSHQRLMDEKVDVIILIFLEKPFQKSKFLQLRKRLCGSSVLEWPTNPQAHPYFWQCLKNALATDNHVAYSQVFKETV
Format: cell-based
Experimental: HEK293-Blue hTLR7 Reporter Assay: HEK-Blue-hTLR7 cell line (Invivogen, Cat. No. hkb-htlr7) was designed so that the expression of the secreted embryonic alkaline phosphatase (SEAP) was induced by activating NF-κ and AP-1 via stimulating human TLR7 with TLR7 agonists. HEK-Blue-hTLR7 cells were seeded at a density of 4×10^4 cells/well in a volume of 180 μL in a 96-well plate in DMEM (Cat. No. 11965-092) supplemented with 10% (v/v) heat-inactivated fetal bovine serum (FBS) (Gibco, 10099-1441), 100 U/ml penicillin and 100 μg/ml streptomycin (Gibco, 15140122) containing 50 U/mL penicillin, […] and 10% (v/v) heat-inactivated fetal bovine serum. The cells were settled for 5 hrs, then treated with increasing amounts of tested compounds at 37° C. for 24 hrs. Then 20 μL of the supernatant from each well was incubated with 180 μL Quanti-blue substrate solution at 37° C. for 10-30 mins before the activity of the SEAP was determined at 620-655 nm using a spectrophotometer. The EC50 value for each compound was calculated with GraphPad Prism software using the sigmoidal dose-response function.
For `CCCCOc1nc(N)c2ncc(Cc3cnc(N4CC(C)NC(C)C4)c(C)c3)n2n1` (stereo not shown) [Compound B55, 2-butoxy-7-((6-(3,5-dimethylpiperazin-1-yl)-5-methylpyridin-3-yl)methyl)imidazo[2,1-f][1,2,4]triazin-4-amine], the EC50 was 196 nM. With “2-butoxy-7-((5-(piperidin-4-yl)pyridin-2-yl)methyl)imidazo[2,1-f][1,2,4]triazin-4-amine [Compound B77]” the EC50 was 311 nM. `CCCC(CCO)Oc1nc(N)c2ncc(Cc3cnc(N4CCN(C(=O)CNC)CC4)c(C)c3)n2n1` (stereo not shown) [Compound B218, 1-(4-(5-((4-amino-2-((1-hydroxyhexan-3-yl)oxy)imidazo[2,1-f][1,2,4]triazin-7-yl)methyl)-3-methylpyridin-2-yl)piperazin-1-yl)-2-(methylamino)ethan-1-one] showed an EC50 of 46 nM. With `CCCC(CCO)Oc1nc(N)c2ncc(Cc3cnc(N4CCN(C(=O)CN(C)C)CC4)c(C)c3)n2n1` (stereo not shown) [Compound B176, 1-(4-(5-((4-amino-2-((1-hydroxyhexan-3-yl)oxy)imidazo[2,1-f][1,2,4]triazin-7-yl)methyl)-3-methylpyridin-2-yl)piperazin-1-yl)-2-(dimethylamino)ethan-1-one] the EC50 was 8.6 nM. `CCCCOc1nc(N)c2ncc(Cc3cc(C)c(C4CCNCC4)cn3)n2n1` [Compound B47, 2-butoxy-7-((4-methyl-5-(piperidin-4-yl)pyridin-2-yl)methyl)imidazo[2,1-f][1,2,4]triazin-4-amine] gave an EC50 of 462 nM. `Cc1cc(Cc2cnc3c(N)nc(OCCCc4ccccc4)nn23)cnc1N1CCNCC1` [Compound B31, 7-((5-methyl-6-(piperazin-1-yl)pyridin-3-yl)methyl)-2-(3-phenylpropoxy)imidazo[2,1-f][1,2,4]triazin-4-amine] was tested, and the EC50 was > 10000 nM. Compound `COCCOc1nc(N)c2ncc(Cc3cnc(N4CCNCC4)c(Cl)c3)n2n1` [Compound B5, 7-((5-chloro-6-(piperazin-1-yl)pyridin-3-yl)methyl)-2-(2-methoxyethoxy)imidazo[2,1-f][1,2,4]triazin-4-amine] has an EC50 of 1230 nM. `C=CC(=O)N1CCN(c2ncc(Cc3cnc4c(N)nc(OCCCC)nn34)cc2Cl)CC1` [Compound B4, 1-(4-(5-((4-amino-2-butoxyimidazo[2,1-f][1,2,4]triazin-7-yl)methyl)-3-chloropyridin-2-yl)piperazin-1-yl)prop-2-en-1-one] was tested, and the EC50 was > 10000 nM. With `CCCCOc1nc(N)c2ncc(Cc3cnc(N4C[C@H]5C[C@@H]4CN5)c(C)c3)n2n1` [Compound B79, 7-((6-((1R,4R)-2,5-diazabicyclo[2.2.1]heptan-2-yl)-5-methylpyridin-3-yl)methyl)-2-butoxyimidazo[2,1-f][1,2,4]triazin-4-amine] the EC50 was 505 nM. `CCCCOc1nc(N)c2ncc(Cc3cnc(N4CCN(C(=O)[C@@H](N)[C@@H](C)CC)CC4)c(C)c3)n2n1` [Compound B67, (2S,3S)-2-amino-1-(4-(5-((4-amino-2-butoxyimidazo[2,1-f][1,2,4]triazin-7-yl)methyl)-3-methylpyridin-2-yl)piperazin-1-yl)-3-methylpentan-1-one] gave an EC50 of 336 nM. With `COCCOCCOCCOCCOCCOCCOc1nc(N)c2ncc(Cc3cnc(N4CCNCC4)c(C)c3)n2n1` [Compound B120, 2-((2,5,8,11,14,17-hexaoxanonadecan-19-yl)oxy)-7-((5-methyl-6-(piperazin-1-yl)pyridin-3-yl)methyl)imidazo[2,1-f][1,2,4]triazin-4-amine] the EC50 was > 10000 nM. `CC[C@H](C)Oc1nc(N)c2ncc(Cc3cnc(N4CCN(C(=O)CN(C)C)CC4)c(C)c3)n2n1` [Compound B145, (S)-1-(4-(5-((4-amino-2-(sec-butoxy)imidazo[2,1-f] [1,2,4]triazin-7-yl)methyl)-3-methylpyridin-2-yl)piperazin-1-yl)-2-(dimethylamino)ethan-1-one] gave an EC50 of 8 nM. With `CCCCOc1nc(N)c2ncc(Cc3cnc(N4CCC(CN(C)C)C4)c(C)c3)n2n1` (stereo not shown) [Compound B105, 2-butoxy-7-((6-(3-((dimethylamino)methyl)pyrrolidin-1-yl)-5-methylpyridin-3-yl)methyl)imidazo[2,1-f][1,2,4]triazin-4-amine] the EC50 was 177 nM. `CCCC(CC)Oc1nc(N)c2ncc(Cc3cnc(N4CCN(C(=O)CNC)CC4)c(C)c3)n2n1` (stereo not shown) [Compound B181, 1-(4-(5-((4-amino-2-(hexan-3-yloxy)imidazo[2,1-f][1,2,4]triazin-7-yl)methyl)-3-methylpyridin-2-yl)piperazin-1-yl)-2-(methylamino)ethan-1-one] showed an EC50 of 7.8 nM. For `CCCCOc1nc(N)c2ncc(Cc3cnc(N4CCN(CCN(C)C)CC4)c(C)c3)n2n1` [Compound B76, 2-butoxy-7-((6-(4-(2-(dimethylamino)ethyl)piperazin-1-yl)-5-methylpyridin-3-yl)methyl)imidazo[2,1-f][1,2,4]triazin-4-amine], the EC50 was 94 nM. `CCCCOc1nc(N)c2ncc(Cc3cnc(N4CCNCC4)c(C(F)(F)F)c3)n2n1` [Compound B10, 2-butoxy-7-((6-(piperazin-1-yl)-5-(trifluoromethyl)pyridin-3-yl)methyl)imidazo[2,1-f][1,2,4]triazin-4-amine] gave an EC50 of 417 nM. Compound `CCCCNc1nc(N)c2ncc(Cc3cnc(N4CCC(CN(C)C)CC4)c(C)c3)n2n1` [Compound B96, N2-butyl-7-((6-(4-((dimethylamino)methyl)piperidin-1-yl)-5-methylpyridin-3-yl)methyl)imidazo[2,1-f][1,2,4]triazine-2,4-diamine] has an EC50 of 17 nM. `CCC[C@@H](C)Nc1nc(N)c2ncc(Cc3cnc(N4CCC(N(C)C)CC4)c(C)c3)n2n1` (single isomer, unassigned) [Compound B185] gave an EC50 of 25 nM. `CCCCOc1nc(N)c2ncc(Cc3cnc(N4CCC5(CCNCC5)C4)c(C)c3)n2n1` [Compound B101, 2-butoxy-7-((5-methyl-6-(2,8-diazaspiro[4.5]decan-2-yl)pyridin-3-yl)methyl)imidazo[2,1-f][1,2,4]triazin-4-amine] gave an EC50 of 425 nM. `CCCCOc1nc(N)c2ncc(Cc3cnc(N4CCNCC4)c(OC)c3)n2n1` [Compound B11, 2-butoxy-7-((5-methoxy-6-(piperazin-1-yl)pyridin-3-yl)methyl)imidazo[2,1-f][1,2,4]triazin-4-amine] gave an EC50 of 247 nM. With `CCCCOc1nc(N)c2ncc(Cc3cnc(N4CCCC4)c(C)c3)n2n1` [Compound B51, 2-butoxy-7-((5-methyl-6-(pyrrolidin-1-yl)pyridin-3-yl)methyl)imidazo[2,1-f][1,2,4]triazin-4-amine] the EC50 was > 10000 nM. In the case of `CCCCc1nc(N)c2ncc(Cc3cnc(N4CCNCC4)c(C)c3)n2n1` [Compound B141, 2-butyl-7-((5-methyl-6-(piperazin-1-yl)pyridin-3-yl)methyl)imidazo[2,1-f][1,2,4]triazin-4-amine], the EC50 is reported as 154 nM. `CCCC(C)Oc1nc(N)c2ncc(Cc3cnc(N4CCC(CN(C)C)CC4)c(C)c3)n2n1` (stereo not shown) [Compound B134, 7-((6-(4-((dimethylamino)methyl)piperidin-1-yl)-5-methylpyridin-3-yl)methyl)-2-(pentan-2-yloxy)imidazo[2,1-f][1,2,4]triazin-4-amine] showed an EC50 of 6 nM. In the case of `CCCCOc1nc(N)c2ncc(Cc3cnc(N4CCNC[C@@H]4C)c(C)c3)n2n1` [Compound B73, (S)-2-butoxy-7-((5-methyl-6-(2-methylpiperazin-1-yl)pyridine-3-yl)methyl)imidazo[2,1-f][1,2,4]triazin-4-amine], the EC50 is reported as 532 nM. `CCCC(C)Nc1nc(N)c2ncc(Cc3cnc(N4CCN(C(=O)CN(C)C)CC4)c(C)c3)n2n1` (stereo not shown) [Compound B151, 1-(4-(5-((4-amino-2-(pentan-2-ylamino)imidazo[2,1-f][1,2,4]triazin-7-yl)methyl)-3-methylpyridin-2-yl)piperazin-1-yl)-2-(dimethylamino)ethan-1-one] showed an EC50 of 3 nM.
